Laboratory results taken from the supplement of paper PMC11061612.

Experiments:
Experiment in all cases: combination Emax (second highest fraction inhibited in the dose matrix, 72 h); higher = more inhibition; extreme values may be limits of the assay
[1] = tested on: AGS (Gastric Carcinoma)
Summary of the method: (§1)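 After 24 hours at 37°C and 5% CO2 in 1536-well plates, cells in DMEM/F12 or RPMI plus 10% FBS received two-drug dose matrices for 72 hours. Viability came from CellTiter-Glo 2.0 luminescence and was scaled as inhibition, anchored at 0 by vehicle wells and at 1 by blank wells. Combination Emax is taken as the second-highest inhibition in the matrix, and Bliss excess as the observed combination effect less EA + EB − EA·EB, with EA and EB the single-agent effects.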

[2] = tested on: B-CPAP (Thyroid Gland Carcinoma)
Summary of the method: as §1

[3] = tested on: CAL-148 (Breast Carcinoma)
Summary of the method: as §1

[4] = tested on: DEL (T-Cell Non-Hodgkin's Lymphoma)
Summary of the method: as §1

[5] = tested on: EC-GI-10 (Esophageal Squamous Cell Carcinoma)
Summary of the method: as §1

[6] = tested on: HO-1-N-1 (Oral Cavity Carcinoma)
Summary of the method: as §1

[7] = tested on: Hs-578-T (Breast Carcinoma)
Summary of the method: as §1

[8] = tested on: HuP-T4 (Pancreatic Carcinoma)
Summary of the method: as §1

[9] = tested on: KELLY (Neuroblastoma)
Summary of the method: as §1

[10] = tested on: KURAMOCHI (Ovarian Carcinoma)
Summary of the method: as §1

[11] = tested on: LB831-BLC (Bladder Carcinoma)
Summary of the method: as §1

[12] = tested on: LNCaP-Clone-FGC (Prostate Carcinoma)
Summary of the method: as §1

[13] = tested on: LS-180 (Colorectal Carcinoma)
Summary of the method: as §1

[14] = tested on: MDA-MB-361 (Breast Carcinoma)
Summary of the method: as §1

[15] = tested on: MFE-296 (Endometrial Carcinoma)
Summary of the method: as §1

[16] = tested on: NOS-1 (Osteosarcoma)
Summary of the method: as §1

[17] = tested on: OVCA420 (Ovarian Carcinoma)
Summary of the method: as §1

[18] = tested on: RO82-W-1 (Thyroid Gland Carcinoma)
Summary of the method: as §1

[19] = tested on: SNU-5 (Gastric Carcinoma)
Summary of the method: as §1

[20] = tested on: UM-UC-3 (Bladder Carcinoma)
Summary of the method: as §1

Structure (SMILES)	combination Emax [1]	combination Emax [2]	combination Emax [3]	combination Emax [4]	combination Emax [5]	combination Emax [6]	combination Emax [7]	combination Emax [8]	combination Emax [9]	combination Emax [10]	combination Emax [11]	combination Emax [12]	combination Emax [13]	combination Emax [14]	combination Emax [15]	combination Emax [16]	combination Emax [17]	combination Emax [18]	combination Emax [19]	combination Emax [20]
COc1nnc2ccc(N3CCC(c4ccc(OCCN5CCN(C)C(=O)[C@H]5C)cc4)CC3)nn12 [AZD5153] + CC1(C)CCC(CN2CCN(c3ccc(C(=O)NS(=O)(=O)c4ccc(NCC5CCOCC5)c([N+](=O)[O-])c4)c(Oc4cnc5[nH]ccc5c4)c3)CC2)=C(c2ccc(Cl)cc2)C1 [Venetoclax] (first compound max 1 µM, 7x7, partner max 1 µM)	0.774	0.622	0.557	0.809	0.251	0.682	0.761	0.485	0.367	0.747	0.499	0.743	0.61	0.443	0.27	0.728	0.792	0.407	0.469	0.278
COc1nnc2ccc(N3CCC(c4ccc(OCCN5CCN(C)C(=O)[C@H]5C)cc4)CC3)nn12 [AZD5153] + CCN(CCO)CCCOc1ccc2c(Nc3cc(CC(=O)Nc4cccc(F)c4)[nH]n3)ncnc2c1 [AZD2811] (first compound max 1 µM, 7x7, partner max 1 µM)	0.936	0.645	0.927	0.905	0.425	0.815	0.771	0.542	0.724	0.738	0.546	0.743	0.617	0.49	0.333	0.765	0.773	0.402	0.506	0.459
COc1nnc2ccc(N3CCC(c4ccc(OCCN5CCN(C)C(=O)[C@H]5C)cc4)CC3)nn12 [AZD5153] + C[C@@H]1COCCN1C2=NC(=NC(=C2)C3(CC3)[S@](=N)(=O)C)C4=C5C=CNC5=NC=C4 [AZD6738] (first compound max 1 µM, 7x7, partner max 10 µM)	0.959	0.72	0.912	1	0.604	0.795	0.8	0.626	0.983	0.826	0.648	0.791	0.767	0.82	0.74	0.887	0.807	0.398	0.913	0.621
COc1nnc2ccc(N3CCC(c4ccc(OCCN5CCN(C)C(=O)[C@H]5C)cc4)CC3)nn12 [AZD5153] + Cc1c2c(nn1C)CSCc1cc(n(C)n1)CSc1cc(c3ccccc3c1)OCCCc1c(C(=O)O)n(C)c3c-2c(Cl)ccc13 [AZD5991] (first compound max 1 µM, 7x7, partner max 1 µM)	0.851	0.706	1	1	0.671	0.991	0.896	0.606	0.993	0.927	0.587	0.772	0.585	0.865	0.878	1	0.771	0.411	0.561	0.281
COc1nnc2ccc(N3CCC(c4ccc(OCCN5CCN(C)C(=O)[C@H]5C)cc4)CC3)nn12 [AZD5153] + Cn1cnc2c(F)c(Nc3ccc(Br)cc3Cl)c(C(=O)NOCCO)cc21 [Selumetinib] (first compound max 1 µM, 7x7, partner max 10 µM)	0.999	0.603	0.79	0.923	0.526	0.773	0.736	0.814	0.645	0.707	0.494	0.728	0.828	0.642	0.356	0.894	0.819	0.456	0.582	0.527
Cc1c2c(nn1C)CSCc1cc(n(C)n1)CSc1cc(c3ccccc3c1)OCCCc1c(C(=O)O)n(C)c3c-2c(Cl)ccc13 [AZD5991] + C=CCn1c(=O)c2cnc(Nc3ccc(N4CCN(C)CC4)cc3)nc2n1-c1cccc(C(C)(C)O)n1 [AZD1775] (first compound max 1 µM, partner max 1 µM)	0.781	0.467	1	1	0.946	0.812	0.874	0.551	1	0.796	0.519	0.769	0.47	0.899	0.585	0.982	0.399	0.506	0.565	0.271
Cc1c2c(nn1C)CSCc1cc(n(C)n1)CSc1cc(c3ccccc3c1)OCCCc1c(C(=O)O)n(C)c3c-2c(Cl)ccc13 [AZD5991] + CC1(C)CCC(CN2CCN(c3ccc(C(=O)NS(=O)(=O)c4ccc(NCC5CCOCC5)c([N+](=O)[O-])c4)c(Oc4cnc5[nH]ccc5c4)c3)CC2)=C(c2ccc(Cl)cc2)C1 [Venetoclax] (first compound max 1 µM, 7x7, partner max 1 µM)	0.665	0.18	0.411	1	0.448	0.979	0.774	0.409	0.999	0.501	0.439	0.228	0.191	0.889	0.593	0.889	0.187	0.255	0.147	0.171
Cc1c2c(nn1C)CSCc1cc(n(C)n1)CSc1cc(c3ccccc3c1)OCCCc1c(C(=O)O)n(C)c3c-2c(Cl)ccc13 [AZD5991] + CCN(CCO)CCCOc1ccc2c(Nc3cc(CC(=O)Nc4cccc(F)c4)[nH]n3)ncnc2c1 [AZD2811] (first compound max 1 µM, 7x7, partner max 1 µM)	0.51	0.313	1	1	0.891	0.993	0.81	0.624	0.896	0.376	0.444	0.33	0.342	0.913	0.45	0.809	0.235	0.274	0.204	0.266
Cc1c2c(nn1C)CSCc1cc(n(C)n1)CSc1cc(c3ccccc3c1)OCCCc1c(C(=O)O)n(C)c3c-2c(Cl)ccc13 [AZD5991] + CN(C)CCCOc1ccc(-c2ccc3ncc4c(c3c2)n(C2CCOCC2)c(=O)n4C)cn1 [AZD0156] (first compound max 1 µM, 7x7, partner max 1 µM)	0.255	0.237	0.417	1	0.747	0.771	0.585	0.779	0.741	0.359	0.229	0.429	0.196	0.791	0.287	0.753	0.191	0.265	0.255	0.211
Cc1c2c(nn1C)CSCc1cc(n(C)n1)CSc1cc(c3ccccc3c1)OCCCc1c(C(=O)O)n(C)c3c-2c(Cl)ccc13 [AZD5991] + C[C@@H]1COCCN1C2=NC(=NC(=C2)C3(CC3)[S@](=N)(=O)C)C4=C5C=CNC5=NC=C4 [AZD6738] (first compound max 1 µM, 7x7, partner max 10 µM)	0.821	0.522	0.942	1	0.819	0.928	0.891	0.51	0.991	0.634	0.439	0.688	0.707	0.962	0.791	1	0.494	0.525	0.942	0.401
Cc1c2c(nn1C)CSCc1cc(n(C)n1)CSc1cc(c3ccccc3c1)OCCCc1c(C(=O)O)n(C)c3c-2c(Cl)ccc13 [AZD5991] + Cc1cc2ncnn2cc1Nc1ncc2c(n1)n(C1CCOCC1)c(=O)n2C [AZD7648] (first compound max 1 µM, 7x7, partner max 10 µM)	0.233	0.365	0.45	1	0.564	0.794	0.63	0.325	0.768	0.331	0.251	0.42	0.256	0.816	0.267	0.895	0.201	0.376	0.347	0.226
Cc1c2c(nn1C)CSCc1cc(n(C)n1)CSc1cc(c3ccccc3c1)OCCCc1c(C(=O)O)n(C)c3c-2c(Cl)ccc13 [AZD5991] + Cn1cnc2c(F)c(Nc3ccc(Br)cc3Cl)c(C(=O)NOCCO)cc21 [Selumetinib] (first compound max 1 µM, 7x7, partner max 3 µM)	0.964	0.299	0.329	1	0.758	0.919	0.54	0.957	0.737	0.485	0.392	0.129	0.589	0.816	0.256	0.895	0.498	0.311	0.495	0.28
